The text below walks through data of US20260297542A1, “HERBICIDE RESISTANT PLANTS” (SYNGENTA CROP PROTECTION AG, priority 2023, published 2026).

The inhibition is the percentage by which the read-out fell short of the control.

Molecules are shown by their SMILES. Residue numbers refer to the chain shown, from its start.

Experiment [1] deals with T1, AtPPO1 S305L Y426M (SEQ ID NO.124) (Arabidopsis thaliana, UniProt P55826, S305L/Y426M).
T1 construct: made in house; host or cells: E. coli BL21 (DE3) hemG, crude extract
T1 sequence (P55826 35-537 S305L/Y426M): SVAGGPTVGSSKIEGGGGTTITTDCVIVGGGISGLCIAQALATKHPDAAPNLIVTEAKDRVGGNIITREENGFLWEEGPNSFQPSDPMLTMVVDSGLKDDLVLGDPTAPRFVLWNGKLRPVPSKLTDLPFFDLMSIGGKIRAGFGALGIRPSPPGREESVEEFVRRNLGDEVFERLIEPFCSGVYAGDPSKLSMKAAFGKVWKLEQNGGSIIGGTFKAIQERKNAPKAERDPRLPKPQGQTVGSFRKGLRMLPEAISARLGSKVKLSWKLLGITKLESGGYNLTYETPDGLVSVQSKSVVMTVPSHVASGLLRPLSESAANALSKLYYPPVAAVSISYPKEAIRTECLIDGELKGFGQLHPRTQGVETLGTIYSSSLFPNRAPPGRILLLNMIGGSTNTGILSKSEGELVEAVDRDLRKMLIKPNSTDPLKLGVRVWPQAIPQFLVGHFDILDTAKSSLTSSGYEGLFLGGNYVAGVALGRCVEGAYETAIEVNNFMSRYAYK
Briefly: fluorescent Protoporphyrinogen Oxidase assay, crude extract. The class given is biochemical. Particulars: read-out: percentage inhibition. On the procedure:
(§1) A pET24 plasmid containing a DNA sequence encoding each identified variant mutant of AtPPO1 derived from Arabidopsis thaliana, codon-optimised for expression in E. coli, and under control of a T7 promoter, was synthesised by Twist Bioscience. This plasmid was expressed in E. coli BL21 (DE3) hemG with 50 μg/mL kanamycin and 25 μg/mL chloramphenicol selection. Overnight cultures grown at 37° C. were used to inoculate 150 ml AIM (AIM-Terrific Broth Base including Trace elements, Formedium) in 500 ml shake flasks at a ratio of 1:100. Cultures were grown at 37° C., 200 rpm for 3 hours and then overnight at 26° C. Cells were harvested by 4° C. centrifugation for 20 minutes at 600 rpm. Cells were stored at −80° C. until extraction. 0.5-1 g of cell pellet from was thawed and resuspended in ratio of 1:1 in lysis buffer (20 mM Tris pH8, 500 mM sodium chloride, 10% glycerol, 1× complete Protease EDTA-free Inhibitor Tablet (Roche)). The resuspension was sonicated at 50% using 10-20 cycles of 10 seconds, 20 seconds off. After sonication Triton X-100 was added to the lysates at a final concentration of 0.5%. The lysates were centrifuged at 13.00 rpm for 10 min at 4° C. The crude extracts (i.e, supernatants) were stored at −80° C. Protein concentration was measured and calculated using the absorbance at 280 nm. Extracts were diluted 1 in 4 and 10 uL was analysed by SDS PAGE.
(§2) Variant crude extracts were assayed in a fluorescent Protoporphyrinogen Oxidase assay in black 384 well plates with a clear bottom. The total volume of the reaction mixture was 100 ul and contained 100 mM K2HPO4 pH7.2, 1 mM Na2EDTA, 5 mM DTT, 20% glycerol (v/v), 0.025% Tween 20 (v/v). Reactions were started with addition of 1 uM protoporphyrinogen IX final assay concentration. Fluorescence was monitored over 30 min using a Tecan plate reader with an excitation wavelength of 405 nm, emission wavelength of 635 nm, gain of 90 and 15 flashes. 10 ul of 3-fold serial dilution of crude extract in 100 mM K2HPO4 pH7.2, 1 mM Na2EDTA, 5 mM DTT, 20% glycerol (v/v), 0.05% Tween 20 (v/v) was tested in the assay against 1% DMSO and 100 ppm herbicide B to determine the correct amount of crude extract to add to the assay to observe activity. 10 ul of the appropriate crude extract dilution was then tested in the fluorescent Protoporphyrinogen Oxidase assay against DMSO and 10-fold dose response of each compound (herbicides A to E) with a top rate of 100 ppm.
(§3) The percentage inhibition was calculated as the activity in the presence of one of four concentrations of each herbicide compound A to E (note that the compounds labelled as A to E are identified hereinabove in the relevant section of the description) as a percentage of the enzyme activity in DMSO (Table 5).

For experiment [2], the target named is T2, AtPPO1 S305L Y361C L362F Y426M L479M (SEQ ID NO.134) (Arabidopsis thaliana, UniProt P55826, L479M/S305L/Y361C/Y362F/Y426M).
T2 sequence (P55826 35-537 S305L/Y361C/Y362F/Y426M/L479M): T1 sequence (P55826 35-537 S305L/Y426M) with Y327C, Y328F, L445M
The experiment is described as above. The class given is biochemical. Particulars: read-out: percentage inhibition. On the procedure: as §1, §2, §3

With `C#CCN1C(=O)C(F)(F)Oc2cc(F)c(-n3c(=O)n(C)c(=S)n(C)c3=O)cc21` [Herbicide B, trifludimoxazin], in experiment [1], the inhibition at 0.1 ppm was determined as 100%, the inhibition at 1 ppm amounted to 100%, the inhibition at 10 ppm amounted to 100% and the inhibition at 100 ppm worked out at 100%. In addition, in experiment [2], the inhibition at 0.1 ppm came to 100%, the inhibition at 1 ppm was 100%, the inhibition at 10 ppm amounted to 100% and the inhibition at 100 ppm is 100%.

Take `CCOC(=O)COc1ncccc1Oc1cc(-n2c(=O)cc(C(F)(F)F)n(C)c2=O)c(F)cc1Cl` [Herbicide A, epyrifenacil]: in experiment [1], the inhibition at 0.1 ppm came out at 34%, the inhibition at 1 ppm came to 82%, the inhibition at 10 ppm amounted to 100% and the inhibition at 100 ppm was 100%. Besides, in experiment [2], the inhibition at 0.1 ppm is 0%, the inhibition at 1 ppm is 40%, the inhibition at 10 ppm came out at 83% and the inhibition at 100 ppm was 92%.

For `CCOC(=O)[C@]1(C)CC(c2cc(-n3c(=O)n(C)c(=S)n(C)c3=O)c(F)cc2Cl)=NO1` [Herbicide D, ethyl (5S)-3-[2-chloro-5-(3,5-dimethyl-2,6-dioxo-4-thioxo-1,3,5-triazinan-1-yl)-4-fluoro-phenyl]-5-methyl-4H-isoxazole-5-carboxylate], in experiment [1], the inhibition at 0.1 ppm was 53%, the inhibition at 1 ppm stood at 85%, the inhibition at 10 ppm is 100% and the inhibition at 100 ppm is 100%. In experiment [2], the inhibition at 0.1 ppm came to 0%, the inhibition at 1 ppm is 56%, the inhibition at 10 ppm was determined as 85% and the inhibition at 100 ppm is 100%.

On to `CC(C)N(C)S(=O)(=O)NC(=O)c1cc(-n2c(=O)cc(C(F)(F)F)n(C)c2=O)c(F)cc1Cl` [Herbicide E, saflufenacil], for which, in experiment [1], the inhibition at 0.1 ppm stood at 38%, the inhibition at 1 ppm is 78%, the inhibition at 10 ppm was found to be 100% and the inhibition at 100 ppm was determined as 96%. In addition, in experiment [2], the inhibition at 0.1 ppm was determined as 0%, the inhibition at 1 ppm is 39%, the inhibition at 10 ppm amounted to 80% and the inhibition at 100 ppm was 99%.

Turning to `CCOC(=O)C1(C)CC(c2cc(-n3c(=O)cc(C(F)(F)F)n(C)c3=O)c(F)cc2Cl)=NO1` (stereo not shown) [Herbicide C, 3-(2-chloro-4-fluoro-5-(3-methyl-2,6-dioxo-4-trifluoromethyl-3,6-dihydropyrimidin-1(2H)-yl)phenyl)-5-methyl-4,5-dihydroisoxazole-5-carboxylic acid ethyl ester], in experiment [1], the inhibition at 0.1 ppm is 77%, the inhibition at 1 ppm was found to be 88%, the inhibition at 10 ppm was 100% and the inhibition at 100 ppm was found to be 100%. Also, in experiment [2], the inhibition at 0.1 ppm came to 19%, the inhibition at 1 ppm amounted to 65%, the inhibition at 10 ppm came to 99% and the inhibition at 100 ppm was found to be 100%.
